Consider 26 compounds from US6812229B1, “Carbamate derivative and agricultural/horticultural fungicide” (Kumiai Chemical Industry Co., Ltd., priority 1999, dated 2004).

In one data set the test system is Erysiphe graminis. Nature of the data set: Test for preventive effect on wheat powdery mildew. The data set is classed as in vivo. The conditions noted are these: wheat seedlings (Norin-61-go), two-leaf stage, 500 ppm active ingredient, wettable powder, total diseased area of first leaves 10 days after inoculation. The protocol:
10 Wheat seeds (variety: Norin-61-go) were sown in each plastic pot having a diameter of 6 cm, and grown in a greenhouse. Wheat seedlings which reached a two-leaf stage were treated with 10 ml per pot of aqueous solutions of wettable powders prepared in accordance with Formulation Example 2, at a concentration of 500 ppm in terms of the active ingredients, and dried in the air. Then, the seedlings were inoculated with Erysiphe graminis spore and controlled in a greenhouse. 10 Days after the inoculation, the total diseased area of the first leaves in each pot was observed and evaluated on the basis of the standards shown in Table 21.

The next data set relates to Septoria nodorum. Nature of the data set: Test for preventive effect on Septoria leaf blotch of wheat. The conditions noted are these: wheat seedlings (Norin-61-go), two-leaf stage, 50 ppm active ingredient, 10 ml per pot, evaluated 10 days after inoculation with Septoria nodorum. The data set is classed as in vivo. The text has this: [table] 10 Wheat seeds (variety: Norin-61-go) were sown in each plastic pot having a diameter of 6 cm, and grown in a greenhouse. […] Then, the seedlings were inoculated with Septoria nodorum […] controlled in a greenhouse. 10 Days after the inoculation, the total diseased area of the first leaves in each pot was observed and evaluated on the basis of the standards shown in Table 21.

For a further data set, the system named is Botrytis cinerea. Nature of the data set: Test for preventive effect on cucumber gray mold. Type of data set: in vivo. Particulars: cucumber seedlings (Sagami-hanziro), cotyledon stage, 500 ppm active ingredient, 10 ml per pot, evaluated 3 days after inoculation with Botrytis cinerea, 22° C moist chamber. The protocol:
4 cucumber seeds (variety: Sagami-hanziro) were sown in each plastic pot having a diameter of 6 cm and grown in a greenhouse. Cucumber young seedlings which reached a cotyledon stage were treated with 10 ml per pot of aqueous solutions of wettable powders prepared in accordance with Formulation Example 2, at a concentration of 500 ppm in terms of the active ingredients and dried in the air. Then, the seedlings were inoculated with Botrytis cinerea spore by putting a paper disc soaked with the spore suspension on the surface of the cucumber cotyledons, and the seedlings were immediately placed in a moist chamber of 22° C. 3 Days after the inoculation, the total diseased area of the cotyledons in each pot was observed and evaluated on the basis of the standards shown in Table 24.

In the case of `COC(=O)NCc1cc(C(C)=NOCc2ccccc2)ccc1Cl` (single isomer, unassigned) [A-80], the Evaluation result in the data set on Erysiphe graminis is given as “A (No diseased area)”. In addition, the “Evaluation (total diseased area of the first leaves)” value with Septoria nodorum was “A (No diseased area)”.
`COC(=O)NCc1cc(C(C)=NOCc2cccc(Cl)c2)ccc1Cl` (single isomer, unassigned) [A-85]: in the data set on Erysiphe graminis, the Evaluation result is listed as “A (No diseased area)”. For the same compound, the “Evaluation (total diseased area of the first leaves)” value in the data set with Septoria nodorum is reported as “B (Diseased area of less than 5%)”.
`CON=C(C#N)c1ccc(Cl)c(CNC(=O)OC)c1` [A-3, 2-[4-chloro-3-(methoxycarbonylaminomethyl)phenyl]-2-methoxyiminoacetonitrile] had a melting point of 104 to 107 °C. The Evaluation result in the data set on Erysiphe graminis is recorded as “A (No diseased area)”. Besides, the “Evaluation (total diseased area of the first leaves)” value in the data set with Septoria nodorum is “B (Diseased area of less than 5%)”.
`COC(=O)NCc1cc(C(C)=NO)ccc1Cl` [A-45, Methyl N-[2-chloro-5-(1-hydroxyiminoethyl)benzyl]carbamate] came in with a melting point of 124 to 127 °C.
As for `COC(=O)NCc1cc(C(C)=NOC(C)C)ccc1Cl` [A-51], the Evaluation entry with Erysiphe graminis is listed as “A (No diseased area)”. The “Evaluation (total diseased area of the first leaves)” value with Septoria nodorum is listed as “B (Diseased area of less than 5%)”.
The corresponding values for `C=CCON=C(C)c1ccc(Cl)c(CNC(=O)OC)c1` [A-58] are “A (No diseased area)” and “B (Diseased area of less than 5%)”.
In the same order, the values of `C#CCON=C(C)c1ccc(Cl)c(CNC(=O)OC)c1` [A-61] are “A (No diseased area)” and “B (Diseased area of less than 5%)”.
Turning to `COC(=O)NCc1cc(C(C)=NOCCCc2ccccc2)ccc1Cl` [A-62], the Evaluation entry in the data set on Erysiphe graminis is recorded as “A (No diseased area)”. Besides, in the data set with Septoria nodorum, the “Evaluation (total diseased area of the first leaves)” value was “B (Diseased area of less than 5%)”.
In the same order, the values of `COC(=O)NCc1cc(C(C)=NOCC(=O)OC(C)(C)C)ccc1Cl` [A-64] are “B (Diseased area of less than 5%)” and “A (No diseased area)”.
In the same order, the values of `COC(=O)NCc1cc(C(C)=NOCc2ccccc2F)ccc1Cl` [A-81] are “A (No diseased area)” and “B (Diseased area of less than 5%)”.
Turning to `COC(=O)NCc1cc(C(C)=NOCc2cccc(F)c2)ccc1Cl` [A-82], the Evaluation result in the data set with Erysiphe graminis is on record as “A (No diseased area)”. Moreover, in the data set with Septoria nodorum, the “Evaluation (total diseased area of the first leaves)” value was “B (Diseased area of less than 5%)”.
For `COC(=O)NCc1cc(C(C)=NOCc2ccc(F)cc2)ccc1Cl` [A-83, Methyl N-{2-chloro-5-[1-(4-fluorobenzyloxyimino)ethyl]benzyl}carbamate], the melting point fell in the range of 101 to 103 °C. Also, in the data set on Erysiphe graminis, the Evaluation entry is “A (No diseased area)”. For the same compound, the “Evaluation (total diseased area of the first leaves)” value in the data set on Septoria nodorum was “A (No diseased area)”.
In the case of `COC(=O)NCc1cc(C(C)=NOCc2ccccc2Br)ccc1Cl` [A-87], the Evaluation entry in the data set on Erysiphe graminis is recorded as “A (No diseased area)”. The “Evaluation (total diseased area of the first leaves)” value with Septoria nodorum was “B (Diseased area of less than 5%)”.
Take `COC(=O)NCc1cc(C(C)=NOCc2cccc(Br)c2)ccc1Cl` [A-88]: in the data set on Erysiphe graminis, the Evaluation result is listed as “A (No diseased area)”. Also, in the data set on Septoria nodorum, the “Evaluation (total diseased area of the first leaves)” value is “B (Diseased area of less than 5%)”.
The corresponding values for `COC(=O)NCc1cc(C(C)=NOCc2ccc(Br)cc2)ccc1Cl` [A-89] are “A (No diseased area)” and “B (Diseased area of less than 5%)”.
In the same order, the values of `COC(=O)NCc1cc(C(C)=NOCc2ccccc2C)ccc1Cl` [A-90] are “A (No diseased area)” and “A (No diseased area)”.
Turning to `COC(=O)NCc1cc(C(C)=NOCc2cccc(C)c2)ccc1Cl` [A-91], the Evaluation result in the data set with Erysiphe graminis is “A (No diseased area)”. The “Evaluation (total diseased area of the first leaves)” value in the data set on Septoria nodorum is recorded as “B (Diseased area of less than 5%)”.
For the compound `COC(=O)NCc1cc(C(C)=NOCc2ccc(C)cc2)ccc1Cl` [A-92], the Evaluation entry with Erysiphe graminis is recorded as “A (No diseased area)”. Also, the “Evaluation (total diseased area of the first leaves)” value in the data set on Septoria nodorum is reported as “B (Diseased area of less than 5%)”.
For `COC(=O)NCc1cc(C(C)=NOCc2ccc(C(C)(C)C)cc2)ccc1Cl` [A-98], the Evaluation entry in the data set on Erysiphe graminis is on record as “A (No diseased area)”. Besides, the “Evaluation (total diseased area of the first leaves)” value in the data set with Septoria nodorum is on record as “A (No diseased area)”.
Consider `COC(=O)NCc1cc(C(C)=NOCc2ccccc2C(F)(F)F)ccc1Cl` [A-99], for which the Evaluation entry with Erysiphe graminis is listed as “A (No diseased area)”. Moreover, the “Evaluation (total diseased area of the first leaves)” value with Septoria nodorum was “B (Diseased area of less than 5%)”.
`COC(=O)NCc1cc(C(C)=NOCc2cccc(C(F)(F)F)c2)ccc1Cl` [A-100]: the Evaluation entry in the data set on Erysiphe graminis was “A (No diseased area)”.
On the same count and under the same terms, the value for `COC(=O)NCc1cc(C(C)=NOCc2ccc(C(F)(F)F)cc2)ccc1Cl` [A-101] was “A (No diseased area)”.
As to `COC(=O)NCc1cc(C=NOCc2ccccc2)ccc1C` [A-112], the Evaluation result in the data set on Erysiphe graminis was “A (No diseased area)”. Besides, the “Evaluation (total diseased area of the first leaves)” value with Septoria nodorum is reported as “B (Diseased area of less than 5%)”.
In the case of `COC(=O)NCc1cc(C(C)=NOCc2ccccc2)ccc1C` [A-113], the Evaluation entry in the data set with Erysiphe graminis was “A (No diseased area)”. Further, in the data set with Septoria nodorum, the “Evaluation (total diseased area of the first leaves)” value is listed as “A (No diseased area)”.
Take `CON=C(C)c1cccc(CON=C(C)c2ccc(Cl)c(CNC(=O)OC)c2)c1` [A-291]: in the data set on Septoria nodorum, the “Evaluation (total diseased area of the first leaves)” value was “A (No diseased area)”. Also, the “Evaluation (total diseased area of the cotyledons)” value in the data set on Botrytis cinerea is 3.
As to `COC(=O)NCc1cc(C(C)=NOCc2cccc(C)n2)ccc1C` [A-434, Methyl N-{2-methyl-5-[1-(6-methylpyridin-2-ylmethoxy)iminoethyl]benzyl}carbamate], the melting point lay within 72 to 75 °C.
